Measured values published in the NIST ThermoML archive (doi:10.1021/je201289w).

How the values were obtained:
[1] = 101.33 kPa, Liquid, Vibrating tube method
[2] = refractive index (Na D-line) (dimensionless); conditions: 101.33 kPa, Liquid, Standard Abbe refractometry

CCn1cc[n+](C)c1.O=S(=O)([O-])O [1-ethyl-3-methylimidazolium hydrogen sulfate]
Conditions | mass density, [1] [kg/m3] | refractive index, [2]
283.15 K | 1376.7 | 1.50042
288.15 K | 1373.6 | 1.49931
293.15 K | 1370.5 | 1.4982
298.15 K | 1367.4 | 1.4971
303.15 K | 1364.3 | 1.49601
308.15 K | 1361.1 | 1.49489
313.15 K | 1357.8 | 1.49379
318.15 K | 1354.6 | 1.49269
323.15 K | 1351.5 | 1.49161
328.15 K | 1348.5 | 1.49052
333.15 K | 1345.4 | 1.48944
338.15 K | 1342.4 | 1.48836
343.15 K | 1339.4 | 1.48727
348.15 K | 1336.4 | 1.48623
353.15 K | 1333.4 | 1.48512

CCn1cc[n+](C)c1.CS(=O)(=O)[O-] [1-ethyl-3-methylimidazolium methanesulfonate]
Conditions | mass density, [1] [kg/m3] | refractive index, [2]
283.15 K | 1252 | 1.49994
288.15 K | 1248.4 | 1.49855
293.15 K | 1245 | 1.49718
298.15 K | 1241.6 | 1.49582
303.15 K | 1238.2 | 1.49444
308.15 K | 1234.9 | 1.49308
313.15 K | 1231.5 | 1.49172
318.15 K | 1228.2 | 1.49039
323.15 K | 1224.8 | 1.48905
328.15 K | 1221.5 | 1.48768
333.15 K | 1218.1 | 1.48638
338.15 K | 1214.8 | 1.48498
343.15 K | 1211.5 | 1.48367
348.15 K | 1208.1 | 1.4823
353.15 K | 1204.8 | 1.48095

CCn1cc[n+](C)c1.N#C[B-](C#N)(C#N)C#N [1-ethyl-3-methylimidazolium tetracyanoborate]
Conditions | mass density, [1] [kg/m3] | refractive index, [2]
283.15 K | 1041 | 1.45284
288.15 K | 1037 | 1.45108
293.15 K | 1032.9 | 1.44936
298.15 K | 1028.9 | 1.44763
303.15 K | 1024.9 | 1.44592
308.15 K | 1020.9 | 1.44421
313.15 K | 1016.9 | 1.44252
318.15 K | 1013 | 1.44081
323.15 K | 1009.1 | 1.43913
328.15 K | 1005.2 | 1.43745
333.15 K | 1001.3 | 1.43578
338.15 K | 997.4 | 1.43412
343.15 K | 993.6 | 1.43248
348.15 K | 989.8 | 1.43085
353.15 K | 986 | 1.42922

CCn1cc[n+](C)c1.F[B-](F)(F)F [1-ethyl-3-methylimidazolium tetrafluoroborate]
Conditions | mass density, [1] [kg/m3] | refractive index, [2]
283.15 K | 1292 | 1.41546
288.15 K | 1288.2 | 1.41423
293.15 K | 1284.3 | 1.413
298.15 K | 1280.5 | 1.41177
303.15 K | 1276.7 | 1.41055
308.15 K | 1272.9 | 1.40934
313.15 K | 1269.1 | 1.4081
318.15 K | 1265.3 | 1.4069
323.15 K | 1261.6 | 1.4057
328.15 K | 1257.8 | 1.40452
333.15 K | 1254 | 1.40327
338.15 K | 1250.2 | 1.40211
343.15 K | 1246.5 | 1.40093
348.15 K | 1242.8 | 1.39975
353.15 K | 1239.2 | 1.39858

CCn1cc[n+](C)c1.N#C[S-] [1-ethyl-3-methylimidazolium thiocyanate]
Conditions | mass density, [1] [kg/m3] | refractive index, [2]
283.15 K | 1124.7 | 1.556
288.15 K | 1121.7 | 1.5545
293.15 K | 1118.6 | 1.55299
298.15 K | 1115.5 | 1.55149
303.15 K | 1112.4 | 1.54999
308.15 K | 1109.4 | 1.5485
313.15 K | 1106.3 | 1.54702
318.15 K | 1103.3 | 1.54557
323.15 K | 1100.3 | 1.54409
328.15 K | 1097.3 | 1.54263
333.15 K | 1094.4 | 1.54119
338.15 K | 1091.4 | 1.53973
343.15 K | 1088.4 | 1.53831
348.15 K | 1085.5 | 1.53687
353.15 K | 1082.6 | 1.53545
